Laboratory results as given in article PMC7111793 (Tetrahedron, 2006).
Peptide text beside a SMILES is read from it. * marks the point of attachment. Cbz = O=C(OCc1ccccc1)*; CF3 = FC(F)(F)*

Molecular target: SARS-CoV 3CL^pro (Severe acute respiratory syndrome coronavirus, UniProt P0C6X7)
Type: biochemical

CC(C)C[C@H](NC(=O)[C@@H](NC(=O)[C@H](C)NC(=O)OCc1ccccc1)C(C)C)C(=O)N[C@@H](CCC(N)=O)C(=O)C(F)(F)F [Compound 4, (S)-4-[N-(Benzyloxycarbonyl)-L-alanyl-L-valyl-L-leucyl]amino-6,6,6-trifluoro-5-oxohexanamide] (Cbz-AVLQ-CF3)
inhibitory activity in words: moderate SARS-CoV 3CL^pro inhibitors
